ChEMBL document CHEMBL1139153, “Comparison of the in vitro apparent permeability and stability of opioid mimetic compounds with that of the native peptide” (Bioorg Med Chem Lett, 2007)

test: Apparent permeability from apical to basolateral side of human Caco-2 cell membrane; type: ADME, cell-based

First: Cc1cc(O)cc(C)c1CC(N)C(=O)NCCCCNC(=O)C(N)Cc1c(C)cc(O)cc1C (centres undefined)
Second: Cc1cc(O)cc(C)c1CC(N)C(=O)NCCCc1nc(O)c(CCCNC(=O)C(N)Cc2c(C)cc(O)cc2C)nc1C (centres undefined)
The Papp A→B of the first is 3.9-fold lower: 0.139 ×10⁻⁶ cm/s for the first, 0.547 ×10⁻⁶ cm/s for the second.

Compared with Cc1cc(O)cc(C)c1CC(N)C(=O)NCCCCc1nc(O)c(CCCCNC(=O)C(N)Cc2c(C)cc(O)cc2C)nc1C (centres undefined), NC(=O)[C@H](Cc1ccccc1)NC(=O)[C@H](Cc1ccccc1)NC(=O)[C@@H]1CCCN1C(=O)[C@@H](N)Cc1ccc(O)cc1 [ENDOMORPHIN 2] is 13-fold lower in Papp A→B: 0.845 ×10⁻⁶ cm/s for the first, 0.0643 ×10⁻⁶ cm/s for the second.
